Here are results for 13 substances from US10473647B1, “Peptides for use in treatment and diagnosis of type 1 diabetes” (ImmusanT, Inc., priority 2014, dated 2019).

No end group written: not given here.

Assay type in all cases: cell-based, human
The test system of assay [1] is undepleted whole blood. Briefly: Whole blood cytokine assay, IP-10, undepleted blood, number of subjects with >=1.25 fold over medium (Example 2). The conditions noted are these: 24 h, peptides 20 ug/mL, pools 4 ug/mL, NEX-01/Nexgen POOL 25 uM, CEFT 1 ug/mL. As to the method: (§1) The depleted blood as well as the remaining undepleted whole blood was then utilized in whole blood cytokine release assays. T-cell cytokine responses were assessed for reactivity to pools of 17mer peptides encompassing all unique 12mer amino-acid sequences derived from pancreatic islet antigens commonly recognized by autoantibodies in T1D: insulin, glutamic decarboxylase-65 (GAD65), and insulinoma-associated antigen (IA)-2 as provided in Table 13A and Table 13B.
(§2) Fresh heparinized blood was incubated with peptide. Concentrations of individual islet-autoantigen peptides were 20 μg/mL and constituent peptides in islet-autoantigen pools were 4 ug/mL. Control MHC class II peptide mix CEFT was used at 1 μg/mL. Gliadin peptide pools were added to whole blood assays at 25 μM. Whole blood assays were incubated for 24 h at 37° C. in 5% CO2. Plasma was separated from blood after centrifugation at 500×g for 10 minutes at room temperature and then transferred to a corresponding well in a “mirror image” sterile 96-well plate. and frozen at −80° C. until use. Multiplex bead-based cytokine assays (MAGPix) were performed according to manufacturer's instructions on thawed plasma. Concentrations of interferon (IFN)-γ-induced protein-10 (IP-10), interleukin (IL)-2 and IFN-γ. Table 14 is a summary of the results for the whole blood cytokine assays which expresses the data in the number of subjects that are positive for ≥1.25 fold production of cytokine over cells incubated with medium only (background).

For assay [2], the system named is CD8+ T cell depleted blood. Briefly: Whole blood cytokine assay, IL-2, CD8+ T cell depleted blood (Example 2). The conditions noted are these: T1D Subjects (n of 6), 24 h, peptides 20 ug/mL, pools 4 ug/mL, NEX-01/Nexgen POOL 25 uM, CEFT 1 ug/mL. The protocol: (§3) Depletion of human CD4+ and CD8+ T cells directly from whole blood, using CD4 and CD8 Dynabeads respectively (Dynabeads Human CD4, Life Technologies, #11145D; Dynabeads Human CD8, Life Technologies, #11145D), was done according to the manufacturer's protocol. Briefly, the Dynabeads were resuspended and the desired volume was transferred to a 15 Ml tube. The calculation of the volume of beads added to whole blood was 2×10^6 CD4 beads (25 μL) and 4×10^6 CD8 beads (50 μL) per Ml of whole blood. The beads were first washed with 3 Ml PBS, vortexed and placed on the magnet for 1 minute. Supernatant was discarded and beads were removed from the magnet. Whole blood was then added to the beads at the volume calculated for the concentration of beads in the tubes. The tubes containing whole blood and Dynabeads were then incubated 45 minutes at 4° C. on a continuous rocker.
(§4) Tubes were then placed into the magnet for 2 minutes. The whole blood supernatant was then transferred to a new tube for use in 24-hour Whole Blood Assay or for Flow Cytometric Analysis. Magnetic beads were discarded.
as §1, §2

Assay [3] deals with CD4+ T cell depleted blood. Briefly: Whole blood cytokine assay, IP-10, CD4+ T cell depleted blood (Example 2). Conditions: T1D Subjects (n of 6), 24 h, peptides 20 ug/mL, pools 4 ug/mL, NEX-01/Nexgen POOL 25 uM, CEFT 1 ug/mL. As to the method: as §3, §4, §1, §2
Assay [4] has as its system CD8+ T cell depleted blood. Briefly: Whole blood cytokine assay, IFNg, CD8+ T cell depleted blood (Example 2). The conditions noted are these: T1D Subjects (n of 6), 24 h, peptides 20 ug/mL, pools 4 ug/mL, NEX-01/Nexgen POOL 25 uM, CEFT 1 ug/mL. As to the method:
as §3, §4, §1, §2

Assay [5] deals with CD8+ T cell depleted blood. Briefly: Whole blood cytokine assay, IP-10, CD8+ T cell depleted blood (Example 2). Conditions: T1D Subjects (n of 6), 24 h, peptides 20 ug/mL, pools 4 ug/mL, NEX-01/Nexgen POOL 25 uM, CEFT 1 ug/mL. As to the method: as §3, §4, §1, §2
The subject of assay [6] is CD4+ T cell depleted blood. Briefly: Whole blood cytokine assay, IFNg, CD4+ T cell depleted blood (Example 2). Conditions: T1D Subjects (n of 6), 24 h, peptides 20 ug/mL, pools 4 ug/mL, NEX-01/Nexgen POOL 25 uM, CEFT 1 ug/mL. The protocol: as §3, §4, §1, §2
Assay [7] has as its system undepleted whole blood. Briefly: Whole blood cytokine assay, IL-2, undepleted blood, number of subjects with >=1.25 fold over medium (Example 2). The conditions noted are these: 24 h, peptides 20 ug/mL, pools 4 ug/mL, NEX-01/Nexgen POOL 25 uM, CEFT 1 ug/mL. The protocol: as §1, §2
Assay [8] has as its system undepleted whole blood. In words: Whole blood cytokine assay, IFNg, undepleted blood, number of subjects with >=1.25 fold over medium (Example 2). Conditions: 24 h, peptides 20 ug/mL, pools 4 ug/mL, NEX-01/Nexgen POOL 25 uM, CEFT 1 ug/mL. As to the method:
as §1, §2

For assay [9], the system named is whole blood from subjects with Type 1 Diabetes. Briefly: Whole blood IP-10 release assay, fine mapping of preproinsulin epitope (Example 3). The conditions noted are these: peptide 10 μM; average of 4 subjects with T1D; FIG. 1A-1C. An excerpt: The leader sequence of the preproinsulin epitope was fine mapped with lys-substituted peptides and C- and N-terminal truncations. […] Without wishing to be bound by any theory, a therapeutic and/or diagnostic peptide in accordance with the present disclosure may be selected to avoid CD8 activity but ensure that CD4 T cells were targeted. The data are the averages of 4 subjects whole blood IP-10 release measured as fold change over medium alone without peptide.
Whole blood was collected from 4 subjects with Type 1 Diabetes aged between 29 and 45-years old. […] In whole blood assays using fresh heparinized blood incubated with peptide (final concentration 10 μM) in phosphate buffered saline (PBS) and DMSO in 96-well round-bottom plates. Peptides (purity by LC-MS >80%) were truncations or lysine-substituted variants of a sequence in preproinsulin shown to be immunogenic in previous studies comparing peptides spanning this polypeptide. […] Assay plates were run on the Luminex MAGPIX magnetic plate reader. The upper limit of quantitation is 10,000 pg/mL and the lower limit of detection is 3.2 pg/mL. The Fold Change of cytokine concentrations from incubations with individual peptides was calculated by dividing the cytokine concentration from the individual peptide incubations by the cytokine concentration of incubations with PBS and DMSO (NIL) on the same assay plates. […]

The mark [10] stands for this setting: Healthy Subjects (n of 4), whole blood.
Where [11] appears, read: T1D Subjects (n of 6), Undepleted WB.

For “20150-01: peptide tested in Example 2 whole blood cytokine assays (Tables 13A/13B, 14) (FYTPKTRREAEDLQGSL)”, the figures for the “Fold Change IP-10, number of subjects positive for ≥1.25 fold production of cytokine over medium only” value (shortened to “Fold Change IP-10, number”) in assay [1] (setting [10]) and in assay [1] (setting [11]) were 2/4 and 4/6, respectively. The “Fold Change IL-2, number of subjects positive for ≥1.25 fold production of cytokine over medium only” value (“Fold Change IL-2, number” below) in [2] is 1/6.

For “20150-05-W1: peptide tested in Example 2 whole blood cytokine assays (Tables 13A/13B, 14) (REAEDLQVGQVELGGGP)”, the “Fold Change IP-10, number” value in assay [3] was 3/6; in assay [5], 5/6; in assay [1] (setting [10]) it was 3/4; in assay [1] (setting [11]), 4/6. Further, the “Fold Change IFNg, number of subjects positive for ≥1.25 fold production of cytokine over medium only” value (shortened to “Fold Change IFNg, number”) in assay [4] and in [6] was 1/6 each time. In addition, in assay [2], the “Fold Change IL-2, number” value was 1/6.

For the substance 20150-11-W1 (NQHLCGSHLVEALYLVC), the “Fold Change IL-2, number” value in [7] (setting [11]) was 1/6. The “Fold Change IFNg, number” value in assay [4] and in [6] was 1/6 throughout. Also, the “Fold Change IP-10, number” value in [5] was 2/6; in assay [1] (setting [10]), 2/4; in [1] (setting [11]), 2/6.

As to “20150-15 (LQGSLQPLALEGSLQKR) [Peptide 20150-15]”, the “Fold Change IFNg, number” value in [4] is 2/6; in assay [6], 1/6. Also, the “Fold Change IL-2, number” value in assay [2] is recorded as 1/6.

Take “20150-19 (EDLQVGQVELGGGPGAG-NH2) [Peptide 20150-19]”: the “Fold Change IFNg, number” value in [8] (setting [10]) is 1/4; in assay [4] it was 3/6; in assay [6] it was 2/6. The “Fold Change IP-10, number” value in assay [1] (setting [10]) is 1/4. Further, the “Fold Change IL-2, number” value in [2] is recorded as 1/6.

With “20150-24: peptide tested in Example 2 whole blood cytokine assays (Tables 13A/13B, 14) (PLLALLALWGPDPAAAF)”, the “Fold Change IL-2, number” value in assay [7] (setting [10]) was 1/4; in [7] (setting [11]), 4/6; in assay [2] it was 6/6. In addition, the “Fold Change IFNg, number” value in assay [8] (setting [10]) is given as 1/4; in assay [8] (setting [11]), 4/6; in assay [4], 5/6; in [6] it was 1/6. Also, the “Fold Change IP-10, number” value in assay [3] is reported as 3/6; in assay [5], 5/6; in assay [1] (setting [10]) it was 4/4; in [1] (setting [11]), 6/6.

In the case of L2P1, 049 (FNQLSTGLDMVGLAADW), the “Fold Change IP-10, number” value in assay [3] and in assay [5] was 2/6 each time. In addition, in assay [6], the “Fold Change IFNg, number” value is on record as 1/6.

Turning to L2P1, 051 (NMFTYEIAPVFVLLEYV), the “Fold Change IL-2, number” value in assay [7] (setting [11]) is recorded as 1/6; in assay [2], 2/6. For the same substance, the “Fold Change IP-10, number” value in assay [3] is given as 3/6; in assay [5] it was 5/6; in assay [1] (setting [10]) it was 3/4; in assay [1] (setting [11]) it was 4/6. Moreover, the figures for the “Fold Change IFNg, number” value in assay [4] and in assay [6] were 2/6 and 1/6, respectively.

Take L3P1, 007 (SPLQAELLPPLLEHLLL): the “Fold Change IP-10, number” value in [5] is 1/6; in [1] (setting [10]), 2/4. Moreover, the “Fold Change IFNg, number” value in [6] is on record as 1/6.

Take L3P1, 046 (PKAARPPVTPVLLEKKS): the “Fold Change IP-10, number” value is recorded as 2/6 in assay [5], 1/4 in [1] (setting [10]) and 1/6 in [1] (setting [11]).

As to L3P2, 076 (GRTGTYILIDMVLNRMA), the “Fold Change IL-2, number” value was 1/4 in [7] (setting [10]), 5/6 in assay [7] (setting [11]) and 6/6 in [2]. The “Fold Change IFNg, number” value in [8] (setting [10]) was 1/4; in [8] (setting [11]) it was 4/6; in [4], 5/6. Moreover, the “Fold Change IP-10, number” value in assay [3] is listed as 3/6; in assay [5] it was 5/6; in [1] (setting [10]), 3/4; in assay [1] (setting [11]) it was 6/6.

As for LLALLALWGPD [SEQ ID NO: 14], in assay [9], the “bioactivity in whole blood IP-10 release assay (fold change over medium alone), in words” value is “compatible with an epitope for CD4 T cells”.

With LPLLALLAL [SEQ ID NO: 76], in assay [9], the “bioactivity in whole blood IP-10 release assay (fold change over medium alone), in words” value is listed as “suggests this is an epitope for CD8 T cells”.
